Results taken from ChEMBL document CHEMBL1201862, “PubChem BioAssay data set” (2004).
Blank lines part the entries; values can stand above or below the compound they belong to. The source made the active and inactive calls.

Tests used:
[1] = target: Melanocortin receptor 4 (Homo sapiens, UniProt P32245); format: functional, cell-based;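 also: Cell-based assay with luminescence read-out, confirmatory dose-response testing for agonist activity of biased ligands at MC4R; human U2OS cells with tagged receptor and beta-arrestin; potency of agonists that increase receptor coupling to beta-arrestin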
Chain of Melanocortin receptor 4 (P32245 whole entry): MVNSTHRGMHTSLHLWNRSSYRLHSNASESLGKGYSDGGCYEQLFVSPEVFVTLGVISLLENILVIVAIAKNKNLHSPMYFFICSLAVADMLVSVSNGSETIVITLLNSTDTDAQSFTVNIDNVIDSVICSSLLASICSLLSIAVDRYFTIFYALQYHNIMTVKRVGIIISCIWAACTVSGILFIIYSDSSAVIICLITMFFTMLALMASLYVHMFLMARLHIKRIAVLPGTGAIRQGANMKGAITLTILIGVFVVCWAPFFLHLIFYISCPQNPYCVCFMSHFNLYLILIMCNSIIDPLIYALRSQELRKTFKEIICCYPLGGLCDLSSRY

[2] = target: Prothrombin (Homo sapiens, UniProt P00734); assay: Thrombin 1536 HTS Dose Response Confirmation. [Related pubchem assays: 1046 (Thrombin 1536 HTS; hits were confirmed in this assay)]; format: functional
[3] = target: T1, Fatty acid synthase (Homo sapiens, UniProt P49327); assay: FAS thioesterase domain inhibitors, dose response, biochemical, endpoint fluorescence intensity, uHTS hits (AID 624327); format: functional;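 also: fluorescence from hydrolysis of an O-methyl fluorescein acyl ester substrate by the enzyme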
T1 sequence (P49327 whole entry, the tested form may be a part): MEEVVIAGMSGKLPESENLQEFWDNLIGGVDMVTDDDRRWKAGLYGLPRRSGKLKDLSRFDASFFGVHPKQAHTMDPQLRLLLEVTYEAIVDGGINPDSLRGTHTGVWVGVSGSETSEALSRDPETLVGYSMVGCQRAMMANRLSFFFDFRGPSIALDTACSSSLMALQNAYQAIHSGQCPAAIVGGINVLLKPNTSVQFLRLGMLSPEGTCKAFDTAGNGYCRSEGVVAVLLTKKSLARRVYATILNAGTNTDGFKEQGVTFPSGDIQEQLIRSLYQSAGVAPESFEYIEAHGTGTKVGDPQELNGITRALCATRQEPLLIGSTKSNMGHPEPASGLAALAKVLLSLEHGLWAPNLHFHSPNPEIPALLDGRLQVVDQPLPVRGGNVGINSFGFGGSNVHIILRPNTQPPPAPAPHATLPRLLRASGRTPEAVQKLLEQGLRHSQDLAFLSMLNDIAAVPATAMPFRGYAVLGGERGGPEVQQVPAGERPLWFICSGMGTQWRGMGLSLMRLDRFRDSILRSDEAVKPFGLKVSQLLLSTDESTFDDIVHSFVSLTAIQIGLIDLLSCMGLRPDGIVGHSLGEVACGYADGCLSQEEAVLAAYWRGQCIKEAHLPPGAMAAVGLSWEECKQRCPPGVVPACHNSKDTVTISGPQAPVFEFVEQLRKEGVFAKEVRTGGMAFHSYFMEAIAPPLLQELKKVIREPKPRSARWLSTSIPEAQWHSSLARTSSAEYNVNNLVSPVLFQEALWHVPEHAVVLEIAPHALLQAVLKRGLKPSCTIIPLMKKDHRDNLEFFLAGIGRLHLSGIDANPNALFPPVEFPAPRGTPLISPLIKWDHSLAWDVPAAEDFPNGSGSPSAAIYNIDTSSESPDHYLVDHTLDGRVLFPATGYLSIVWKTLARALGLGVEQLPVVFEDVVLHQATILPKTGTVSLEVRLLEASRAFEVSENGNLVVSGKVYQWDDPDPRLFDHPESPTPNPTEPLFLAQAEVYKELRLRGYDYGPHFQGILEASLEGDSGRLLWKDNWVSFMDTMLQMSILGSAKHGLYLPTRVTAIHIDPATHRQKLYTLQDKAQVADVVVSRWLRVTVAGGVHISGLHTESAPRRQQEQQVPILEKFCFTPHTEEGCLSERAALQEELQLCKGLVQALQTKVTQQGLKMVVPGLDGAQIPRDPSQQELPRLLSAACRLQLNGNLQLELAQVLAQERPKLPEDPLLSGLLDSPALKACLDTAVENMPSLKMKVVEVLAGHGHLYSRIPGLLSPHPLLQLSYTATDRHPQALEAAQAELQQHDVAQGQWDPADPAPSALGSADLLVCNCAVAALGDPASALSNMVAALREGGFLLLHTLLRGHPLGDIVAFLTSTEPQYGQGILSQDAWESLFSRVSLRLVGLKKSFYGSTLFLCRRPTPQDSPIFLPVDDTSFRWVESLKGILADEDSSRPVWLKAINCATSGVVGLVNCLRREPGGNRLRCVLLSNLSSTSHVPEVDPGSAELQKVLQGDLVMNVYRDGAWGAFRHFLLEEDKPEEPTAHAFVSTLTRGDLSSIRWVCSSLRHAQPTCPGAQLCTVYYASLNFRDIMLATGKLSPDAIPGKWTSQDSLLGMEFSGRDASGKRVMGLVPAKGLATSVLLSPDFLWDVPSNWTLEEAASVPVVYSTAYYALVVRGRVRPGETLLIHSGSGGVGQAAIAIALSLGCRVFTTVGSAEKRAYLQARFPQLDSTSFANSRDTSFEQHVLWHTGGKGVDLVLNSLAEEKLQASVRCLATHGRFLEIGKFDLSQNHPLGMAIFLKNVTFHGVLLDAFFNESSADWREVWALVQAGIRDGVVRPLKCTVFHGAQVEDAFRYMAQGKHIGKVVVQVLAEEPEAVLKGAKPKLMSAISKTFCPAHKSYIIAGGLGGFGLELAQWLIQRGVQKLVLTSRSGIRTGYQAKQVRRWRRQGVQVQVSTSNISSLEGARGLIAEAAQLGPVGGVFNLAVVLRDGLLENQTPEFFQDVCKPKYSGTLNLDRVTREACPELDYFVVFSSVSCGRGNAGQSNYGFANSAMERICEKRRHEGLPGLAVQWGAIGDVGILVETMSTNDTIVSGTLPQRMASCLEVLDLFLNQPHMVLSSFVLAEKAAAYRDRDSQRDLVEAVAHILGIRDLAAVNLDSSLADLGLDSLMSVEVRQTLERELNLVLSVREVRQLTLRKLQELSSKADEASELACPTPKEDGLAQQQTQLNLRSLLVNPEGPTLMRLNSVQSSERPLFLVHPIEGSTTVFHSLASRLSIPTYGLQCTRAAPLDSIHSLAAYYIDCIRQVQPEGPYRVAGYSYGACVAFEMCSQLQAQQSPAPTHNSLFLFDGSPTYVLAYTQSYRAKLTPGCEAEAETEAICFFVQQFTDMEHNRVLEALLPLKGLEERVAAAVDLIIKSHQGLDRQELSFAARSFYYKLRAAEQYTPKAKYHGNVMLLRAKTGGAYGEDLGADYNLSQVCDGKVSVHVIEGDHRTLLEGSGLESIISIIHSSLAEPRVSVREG

[4] = target: T1, Fatty acid synthase; assay: FAS thioesterase domain inhibitors, dose response, biochemical, kinetic fluorescence intensity (AID 624326); format: functional;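 also: rate of fluorescence rise from hydrolysis of a fluorogenic O-methyl fluorescein ester substrate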
[5] = target: Estrogen receptor beta (Homo sapiens, UniProt Q92731);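 also: recombinant ER-beta bound to coactivator SRC1 peptide in presence of estradiol agonist; inhibitors block coactivator peptide binding and lower the FRET signal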
Chain of Estrogen receptor beta (Q92731 whole entry): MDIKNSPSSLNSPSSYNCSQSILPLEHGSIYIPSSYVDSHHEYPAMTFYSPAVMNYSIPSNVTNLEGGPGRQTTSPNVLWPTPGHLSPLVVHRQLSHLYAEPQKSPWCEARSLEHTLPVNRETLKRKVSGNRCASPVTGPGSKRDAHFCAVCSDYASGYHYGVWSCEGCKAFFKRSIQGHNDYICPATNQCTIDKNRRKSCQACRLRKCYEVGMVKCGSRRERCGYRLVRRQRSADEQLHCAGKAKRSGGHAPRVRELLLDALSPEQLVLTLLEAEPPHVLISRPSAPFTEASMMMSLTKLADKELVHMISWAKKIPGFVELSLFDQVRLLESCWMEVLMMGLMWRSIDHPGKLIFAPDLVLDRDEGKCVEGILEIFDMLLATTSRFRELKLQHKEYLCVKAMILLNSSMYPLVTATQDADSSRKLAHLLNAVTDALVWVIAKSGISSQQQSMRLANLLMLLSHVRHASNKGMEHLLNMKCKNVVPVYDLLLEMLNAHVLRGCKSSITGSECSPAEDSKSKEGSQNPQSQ

[6] = cells; format: functional, cell-based
[7] = target: T2, Trace amine-associated receptor 1 (Homo sapiens, UniProt Q96RJ0); assay: Fluorescence-based cell-based high throughput dose response assay to identify agonists of the human trace amine associated receptor 1 (TAAR1).; format: functional
T2 sequence (Q96RJ0 whole entry): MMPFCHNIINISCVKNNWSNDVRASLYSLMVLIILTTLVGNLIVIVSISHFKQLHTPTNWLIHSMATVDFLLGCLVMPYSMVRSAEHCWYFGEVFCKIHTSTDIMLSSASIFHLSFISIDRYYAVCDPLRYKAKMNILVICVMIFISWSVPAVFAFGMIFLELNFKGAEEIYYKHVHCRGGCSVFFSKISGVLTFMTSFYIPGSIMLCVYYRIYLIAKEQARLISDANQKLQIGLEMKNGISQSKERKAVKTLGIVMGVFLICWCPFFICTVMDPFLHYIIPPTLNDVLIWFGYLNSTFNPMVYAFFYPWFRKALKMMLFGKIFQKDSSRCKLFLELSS

[8] = target: T2, Trace amine-associated receptor 1; assay: Counterscreen for agonists of the human trace amine associated receptor 1 (hTAAR1): Fluorescence-based cell-based high throughput dose response assay to identify hTAAR1 agonist that also desensitize TAAR1 receptor response.; format: functional
[9] = cells; format: functional, cell-based; remark: listed apart in the source
[10] = target: T3, Rac GTPase-activating protein 1 (Homo sapiens, UniProt Q9H0H5); assay: MgcRacGAP GTPase-activating activity inhibitors, confirmation, biochemical, ADP Hunter fluorescence, primary and confirmatory (AID 624330); format: functional
T3 sequence (Q9H0H5 whole entry): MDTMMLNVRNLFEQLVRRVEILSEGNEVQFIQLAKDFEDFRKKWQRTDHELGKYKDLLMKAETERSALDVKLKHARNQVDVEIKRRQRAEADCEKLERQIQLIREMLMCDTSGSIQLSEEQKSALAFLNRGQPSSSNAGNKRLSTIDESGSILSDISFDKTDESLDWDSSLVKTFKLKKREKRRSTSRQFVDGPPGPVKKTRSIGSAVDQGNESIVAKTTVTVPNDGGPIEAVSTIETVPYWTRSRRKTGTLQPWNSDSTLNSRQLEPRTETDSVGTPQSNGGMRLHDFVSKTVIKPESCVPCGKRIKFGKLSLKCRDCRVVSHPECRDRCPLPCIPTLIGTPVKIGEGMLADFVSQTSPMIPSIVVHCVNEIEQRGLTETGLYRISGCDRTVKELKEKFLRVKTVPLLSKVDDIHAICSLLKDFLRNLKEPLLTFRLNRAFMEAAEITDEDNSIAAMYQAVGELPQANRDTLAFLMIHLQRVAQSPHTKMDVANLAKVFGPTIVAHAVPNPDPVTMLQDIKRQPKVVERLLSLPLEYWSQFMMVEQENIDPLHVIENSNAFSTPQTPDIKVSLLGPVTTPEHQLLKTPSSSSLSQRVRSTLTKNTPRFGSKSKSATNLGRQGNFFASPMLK

[11] = target: T4, Sentrin-specific protease 8 (Homo sapiens, UniProt Q96LD8); assay: SENP8 protease inhibitors, SAR follow-up, biochemical, luminescence (AID 504501); format: functional
T4 sequence (Q96LD8 whole entry): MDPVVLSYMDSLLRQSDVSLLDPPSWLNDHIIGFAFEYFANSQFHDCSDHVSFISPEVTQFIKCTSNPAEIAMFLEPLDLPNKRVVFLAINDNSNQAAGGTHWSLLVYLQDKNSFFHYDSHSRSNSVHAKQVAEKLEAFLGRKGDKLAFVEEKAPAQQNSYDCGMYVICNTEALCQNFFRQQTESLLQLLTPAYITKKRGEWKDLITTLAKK

[12] = target: T5, Caspase-3 (Homo sapiens, UniProt P42574); assay: SAR Analysis of small molecule inhibitors of Sentrin-specific proteases (SENPs) using a Caspase-3 Selectivity assay. [Related pubchem assays (depositor defined):AID2540, AID2599, AID434973, AID489001]; format: functional
T5 sequence (P42574 whole entry): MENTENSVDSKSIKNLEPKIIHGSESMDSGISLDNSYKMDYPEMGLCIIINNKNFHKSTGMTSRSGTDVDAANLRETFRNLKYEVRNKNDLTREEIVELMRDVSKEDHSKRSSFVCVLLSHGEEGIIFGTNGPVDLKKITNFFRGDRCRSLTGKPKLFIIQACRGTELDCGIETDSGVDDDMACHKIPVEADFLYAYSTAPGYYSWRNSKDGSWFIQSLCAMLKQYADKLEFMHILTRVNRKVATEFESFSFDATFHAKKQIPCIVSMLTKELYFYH

[13] = target: T6, Sentrin-specific protease 6 (Homo sapiens, UniProt Q9GZR1); assay: SAR Analysis of small molecule inhibitors of Sentrin-specific protease 6 (SENP6) using a Luminescent assay. [Related pubchem assays (depositor defined):AID2582, AID2599]; format: functional
T6 sequence (Q9GZR1 whole entry): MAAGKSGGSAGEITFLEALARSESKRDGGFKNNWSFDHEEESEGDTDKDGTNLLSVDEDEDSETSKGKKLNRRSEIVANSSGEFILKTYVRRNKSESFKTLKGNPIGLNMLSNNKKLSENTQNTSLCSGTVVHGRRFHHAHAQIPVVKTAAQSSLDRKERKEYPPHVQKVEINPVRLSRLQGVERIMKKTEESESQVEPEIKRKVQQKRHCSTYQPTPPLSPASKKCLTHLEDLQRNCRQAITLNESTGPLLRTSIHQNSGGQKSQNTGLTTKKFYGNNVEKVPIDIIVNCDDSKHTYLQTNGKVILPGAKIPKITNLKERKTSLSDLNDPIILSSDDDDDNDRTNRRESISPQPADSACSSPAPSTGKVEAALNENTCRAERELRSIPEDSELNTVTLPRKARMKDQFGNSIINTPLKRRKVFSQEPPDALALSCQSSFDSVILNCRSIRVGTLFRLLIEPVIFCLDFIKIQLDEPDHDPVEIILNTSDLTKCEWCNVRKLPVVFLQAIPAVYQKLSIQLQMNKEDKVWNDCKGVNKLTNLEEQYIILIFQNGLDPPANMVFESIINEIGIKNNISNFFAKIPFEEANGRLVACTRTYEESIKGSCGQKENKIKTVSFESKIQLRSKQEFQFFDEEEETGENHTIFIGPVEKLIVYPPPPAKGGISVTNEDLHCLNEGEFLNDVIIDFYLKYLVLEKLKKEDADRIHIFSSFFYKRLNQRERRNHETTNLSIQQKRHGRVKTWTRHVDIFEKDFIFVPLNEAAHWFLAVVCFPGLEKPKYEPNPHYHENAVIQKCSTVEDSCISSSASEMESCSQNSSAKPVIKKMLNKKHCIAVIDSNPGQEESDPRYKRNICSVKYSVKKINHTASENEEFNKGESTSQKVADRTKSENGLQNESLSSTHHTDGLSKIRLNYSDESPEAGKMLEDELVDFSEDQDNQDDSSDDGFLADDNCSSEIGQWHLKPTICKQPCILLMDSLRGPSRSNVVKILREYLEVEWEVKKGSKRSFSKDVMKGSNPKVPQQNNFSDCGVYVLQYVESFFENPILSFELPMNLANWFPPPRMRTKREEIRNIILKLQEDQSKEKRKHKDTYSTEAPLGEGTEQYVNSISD

[14] = target: T7, Sentrin-specific protease 7 (Homo sapiens, UniProt Q9BQF6); assay: SENP7 protease inhibitors, SAR follow-up, biochemical, luminescence (AID 504497); format: functional
T7 sequence (Q9BQF6 whole entry): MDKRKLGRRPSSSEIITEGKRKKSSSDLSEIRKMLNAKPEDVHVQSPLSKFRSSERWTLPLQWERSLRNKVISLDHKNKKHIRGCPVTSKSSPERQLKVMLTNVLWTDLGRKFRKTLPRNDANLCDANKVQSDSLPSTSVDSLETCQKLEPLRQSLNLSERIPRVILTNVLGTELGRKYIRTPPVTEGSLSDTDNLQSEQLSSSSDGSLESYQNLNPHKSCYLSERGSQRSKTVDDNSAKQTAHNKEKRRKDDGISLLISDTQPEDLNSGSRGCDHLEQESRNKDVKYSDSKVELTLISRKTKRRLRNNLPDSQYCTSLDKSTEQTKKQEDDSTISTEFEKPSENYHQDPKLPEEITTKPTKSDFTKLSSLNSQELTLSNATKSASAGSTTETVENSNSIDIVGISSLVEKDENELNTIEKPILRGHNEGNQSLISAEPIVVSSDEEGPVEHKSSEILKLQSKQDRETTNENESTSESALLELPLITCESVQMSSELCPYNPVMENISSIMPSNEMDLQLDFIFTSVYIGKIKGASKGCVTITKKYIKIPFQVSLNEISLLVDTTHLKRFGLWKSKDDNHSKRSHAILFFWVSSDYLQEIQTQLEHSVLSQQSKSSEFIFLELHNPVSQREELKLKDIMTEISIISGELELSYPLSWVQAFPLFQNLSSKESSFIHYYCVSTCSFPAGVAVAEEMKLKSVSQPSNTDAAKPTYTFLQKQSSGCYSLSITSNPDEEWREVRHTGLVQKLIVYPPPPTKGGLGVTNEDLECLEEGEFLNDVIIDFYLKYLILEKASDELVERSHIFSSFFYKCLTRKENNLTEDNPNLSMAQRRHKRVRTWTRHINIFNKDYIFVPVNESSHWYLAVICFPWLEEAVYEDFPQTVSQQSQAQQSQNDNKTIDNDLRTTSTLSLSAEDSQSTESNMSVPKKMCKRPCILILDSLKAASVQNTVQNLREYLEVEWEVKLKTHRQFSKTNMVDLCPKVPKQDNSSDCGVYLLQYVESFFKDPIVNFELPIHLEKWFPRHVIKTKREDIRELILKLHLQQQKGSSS

- EC50 [1]: > 89.2 µM (inactive)
Structure (SMILES): Cc1ccccc1-c1nc(-c2ccc(NC(=O)c3ccc(Br)o3)cc2)no1

- IC50 [2]: 0.537 µM (active)
- IC50 [3]: 8.88 µM (active)
- IC50 [4]: 12.1 µM (active)
Structure (SMILES): CCn1cc(C(=O)NCc2ccc3c(c2)OCO3)c(=O)c2cc(S(=O)(=O)N(C)C)ccc21

- IC50 [5]: > 50 µM (not active)
Structure (SMILES): CCN(CC)S(=O)(=O)c1ccc(C(=O)NCc2ccc(C)cc2)cc1

Structure (SMILES): NNc1nc(Nc2ccccc2)nc(N2CCCCC2)n1
- IC50 [6]: > 29.9 µM (inactive)
- EC50 [7]: 3.48 µM (active)
- IC50 [8]: 8.76 µM (active)
- EC50 [9]: > 29.9 µM (inactive)

- IC50 [2]: 3.09 µM (active)
- IC50 [10]: 108 µM (active)
Structure (SMILES): CCOC(=O)c1[nH]c2ccccc2c1NC(=S)Nc1ccccc1

Structure (SMILES): O=C(COC(=O)Cc1ccccc1F)NCCc1ccccc1
- IC50 [6]: > 29.9 µM (inactive)
- EC50 [7]: > 9.96 µM (active)
- IC50 [8]: 2.35 µM (active)
- EC50 [9]: > 29.9 µM (inactive)

- IC50 [2]: 0.0165 µM (active)
Structure (SMILES): CC(=O)n1nc(-c2ccccc2)nc1NCc1ccc(F)cc1

Structure (SMILES): O=C(CN1CCc2ccccc2C1)Nc1ccccc1C(F)(F)F
- IC50 [10]: 205 µM (active)
- IC50 [6]: > 29.9 µM (inactive)
- EC50 [7]: 3.55 µM (active)
- IC50 [8]: 11.1 µM (inactive)
- EC50 [9]: > 29.9 µM (inactive)

- IC50 [2]: > 50 µM (not active)
Structure (SMILES): CCOC(=O)CSc1nnc(NC(=O)c2cc([N+](=O)[O-])cc([N+](=O)[O-])c2)s1

- IC50 [12]: > 99 µM (inactive)
- IC50 [13]: > 99 µM (inactive)
- IC50 [14]: > 99 µM (inactive)
Structure (SMILES): CCOC(=O)c1c(-c2ccc(Br)cc2)csc1NC(=O)C1CC1
- IC50 [11]: > 99 µM (inactive)

- EC50 [1]: > 89.2 µM (inactive)
Structure (SMILES): COc1ccc(CNC(=O)Nc2nc(C(N)Cc3ccc(C(F)(F)F)cc3)cs2)cc1 (centres undefined)

- IC50 [12]: > 99 µM (inactive)
- IC50 [13]: > 99 µM (inactive)
- IC50 [14]: > 99 µM (inactive)
Structure (SMILES): CS(=O)(=O)c1ccc2nc(NC(=O)c3cccc(NS(=O)(=O)c4ccccc4)c3)sc2c1
- IC50 [11]: > 99 µM (inactive)

- IC50 [12]: > 99 µM (inactive)
- IC50 [13]: > 99 µM (inactive)
- IC50 [14]: > 99 µM (inactive)
Structure (SMILES): COc1ccc(N/N=C/c2cn(Cc3ccccc3)c3ccccc23)cc1
- IC50 [11]: > 99 µM (inactive)

- IC50 [12]: > 99 µM (inactive)
- IC50 [13]: > 99 µM (inactive)
- IC50 [14]: > 99 µM (inactive)
Structure (SMILES): Cc1ccc(S(=O)(=O)Nc2ccc3sc(NC(=O)c4ccccc4)nc3c2)cc1
- IC50 [11]: > 99 µM (inactive)

- EC50 [1]: 12.4 µM (inactive)
Structure (SMILES): COc1ccc(-c2cc(NC=O)c3ncc(-c4cccc(C(F)(F)F)c4)n3c2)cc1OC

- EC50 [1]: > 89.2 µM (inactive)
Structure (SMILES): C/C(=N\NC(=O)COc1cccc2ccccc12)c1cccs1

Structure (SMILES): CCOC(=O)N[C@H](C(=O)N1CCC[C@H]1C(=O)NCCc1ccccc1Cl)c1ccccc1
- IC50 [6]: > 29.9 µM (inactive)
- EC50 [7]: 2.06 µM (active)
- IC50 [8]: 6.89 µM (active)
- EC50 [9]: > 29.9 µM (inactive)

Structure (SMILES): Nc1nc(-c2ccccc2)cn1/N=C/c1ccccc1
- IC50 [6]: > 29.9 µM (inactive)
- EC50 [7]: 1.49 µM (active)
- IC50 [8]: 8.47 µM (active)
- EC50 [9]: > 29.9 µM (inactive)
